Like-named read-outs stand apart in the source and are kept apart here.
What was measured:
[1] = system: spontaneously hypertensive rats; assay: mean arterial blood pressure in spontaneously hypertensive rats; assay type: in vivo; conditions: 50 mg/kg intraperitoneally
Source text: Maximal blood pressure reduction was approximately 50 to 55 mm Hg.

DBH [2] = target: T1, DBH (Bos taurus, UniProt P15101); assay: in vitro DBH inhibition (conversion of tyramine to octopamine, spectrophotometric at 330 nm)
T1 sequence (P15101 1-610): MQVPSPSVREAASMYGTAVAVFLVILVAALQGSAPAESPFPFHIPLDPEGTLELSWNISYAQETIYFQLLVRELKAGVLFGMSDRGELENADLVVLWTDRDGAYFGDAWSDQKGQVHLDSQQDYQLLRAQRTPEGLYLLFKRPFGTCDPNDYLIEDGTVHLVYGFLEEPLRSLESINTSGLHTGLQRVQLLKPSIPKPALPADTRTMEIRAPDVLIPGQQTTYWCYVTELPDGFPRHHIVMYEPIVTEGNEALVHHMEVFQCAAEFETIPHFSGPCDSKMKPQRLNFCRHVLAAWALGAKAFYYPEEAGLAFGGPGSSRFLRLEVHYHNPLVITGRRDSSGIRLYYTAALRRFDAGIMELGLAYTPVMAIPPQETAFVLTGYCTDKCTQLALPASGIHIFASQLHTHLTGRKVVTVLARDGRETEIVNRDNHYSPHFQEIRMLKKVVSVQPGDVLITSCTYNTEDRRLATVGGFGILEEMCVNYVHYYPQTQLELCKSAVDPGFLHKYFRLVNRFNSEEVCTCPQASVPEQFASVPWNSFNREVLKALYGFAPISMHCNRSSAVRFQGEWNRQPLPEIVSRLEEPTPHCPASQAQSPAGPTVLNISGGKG

DBH [3] = conditions: cited from earlier work
[4] = patients, Friedman et al., Psychosomatic Med. 40, 107 (1978), significance uncertain

| Compound | IC50 (DBH [2]) [µM] | lowered DBH levels in treated patients (DBH [3]; [4]) | other results |
| --- | --- | --- | --- |
| Fc1cc(F)cc(Cc2cccnc2S)c1 | 134 |  | blood pressure reduction compared to vehicle-treated controls ([1]; monitored for 260 minutes): significant blood pressure reductions; time after treatment to significant blood pressure reductions ([1]; within approximately): ≤ 30 min |
| Fc1cccc(Cc2cccnc2S)c1 [3-(3-Fluorobenzyl)-2-mercaptopyridine] | 500 |  |  |
| C[C@](N)(Cc1ccc(O)c(O)c1)C(=O)O [alpha-methyl-DOPA] |  | lowered DBH levels |  |
| CC(C)NCC(O)COc1cccc2ccccc12 (stereo not shown) [propranolol] |  |  | lowered DBH levels in treated patients (DBH [3]; human, in vivo): not |
| COC(=O)[C@H]1[C@H]2C[C@@H]3c4[nH]c5cc(OC)ccc5c4CCN3C[C@H]2C[C@@H](OC(=O)c2cc(OC)c(OC)c(OC)c2)[C@@H]1OC [reserpine] |  | lowered DBH levels |  |

Reference: patent US4839371A, “3-aralkyl-2-mercaptoyridines as dopamine-β-hydroxylase inhibitors” (SmithKline Beckman Corporation, priority 1987, dated 1989)
